Results taken from patent publication US20110206739A1, “COMPOSITIONS AND METHODS FOR THE PREPARATION OF NANOEMULSIONS” (UNIVERSITY OF MASSACHUSETTS, priority 2008, published 2011).

Experiments:
[1] = test system: Malme-3M melanoma cancer cells; assay: Curcumin cell inhibition, MTS assay after 72 hrs; format: cell-based, human
Method: The curcumin nanoemulsion was prepared by combining gelatin and EMG-20 or gelatin and Solutol® HS15 in a 1:1 weight ratio. The cell inhibition activity of the blank nanoemulsion, a 30 micromolar DMSO-curcumin mixture, a 0.030 micromolar DMSO-curcumin mixture, and a 0.03 micromolar curcumin nanoemulsion were contacted with melanoma cancer cell lines.

[2] = Electrokinetic potential (zeta potential); format: physicochemical; details: at 10 mv
Method: The electrokinetic potential (“Zeta-potential”) of the curcumin nanoemulsion was measured (FIG. 10A) and compared to the corresponding electrokinetic potential for curcumin in water (FIG. 10B). The zeta potential of a colloidal system corresponds to the electric potential in the interfacial double layer (DL) at the location of the slipping plane versus a point in the bulk fluid away from the interface (i.e., the potential difference between the dispersion medium and the stationary layer of fluid attached to the dispersed particle). For small particles (e.g., nanoemulsions) a higher zeta potential corresponds to greater stability of a colloidal dispersion, representing a greater degree of repulsion between adjacent particles in the dispersion to resist particle/droplet aggregation. A zeta potential of −23.5 (wall zeta potential of −50.3) was measured for the curcumin nanoemulsion (FIG. 10A), compared to a zeta wall potential at 10 mv of −2.53 for curcumin in water (FIG. 10B).

[3] = test system: melanoma cancer cells (Malme-3M); assay: 5-FU Cell Proliferation Assay (MTS Assay); format: cell-based, human; details: 24 μM, compared with 5-FU nanoemulsion
Method: The in vitro activity of the 5-FU nanoemulsion was measured against three cancer cell lines (CCL-221, Malme-3M, and CCL-2) using a Cell Proliferation Assay (MTS Assay). The MTS Assay uses a tetrazolium compound (MTS) and an electron coupling reagent (PES) was purchased from Fisher Scientific (Pittsburgh, Pa.). The tetrazolium compound (MTS) can be bioreduced into a colored formazan product by dehydrogenase enzymes in metabolic cells. Formazan is a water-soluble compound and can be dissolved in the culture medium, the quantity of formazan product as measured by the absorbance at 490 nm was directly proportional to the number of living cells in culture.
After incubation for 5 hours, the cells were attached to the bottom of the well and the diluted nanoemulsions were then added and incubated for 48 hours. Subsequently, the media were removed by aspiration and 100 microliter of fresh phenol free cell culture media was pipetted followed by adding 20 microliter of MTS reagent into each well. The plate was incubated for 2 hours at 37 degrees C. in a humidified, 5% CO2 atmosphere and the 96-well plate reader was used to measure the absorbance at 490 nm. The 5-FU nanoemulsions prepared in this study had 20 nm average particle size.

[4] = test system: PL-45 cells; assay: Paclitaxel growth inhibition, 48 hours; format: cell-based, human; details: PL-45, after 48 hours of treatment
Method: FIG. 16C is a graph showing dose-dependant anti cancer activity of paclitaxel in DMSO and paclitaxel in a nanoemulsion made up of rice bran oil and Solutol® HS15 against PL-45 cells after 48 hours of treatment. The graphs indicate a 44% and 40% growth inhibition when treated with paclitaxel in DMSO and paclitaxel in nanoemulsion respectively. […] The error bars represent the standard error of mean for experiments done in duplicates.

[5] = Particle size by dynamic laser light scattering (Malvern Zetasizer-S); format: physicochemical
Method: Unless otherwise indicated, “average particle size” refers to the z-average particle or droplet diameter measured by dynamic laser light scattering, also called Photon correlation spectroscopy (e.g., using the Malvern Zetasizer-S instrument, Malvern Instruments Inc., Southborough Mass.). Unless otherwise indicated, the z-average particle sizes were determined using the Malvern Zetasizer-S instrument with a 4 mW He—Ne laser operating at a wavelength of 633 nm and an avalanche photodiode detector (APD). The z-average diameter is the mean hydrodynamic diameter and the polydispersity index is an estimate of the width of the distribution. Both z-average diameter and polydispersity index (“PDI”) are calculated according to the International Standard on dynamic light scattering, ISO13321.
(§1) Particle sizes of all the formulations indicated in the Examples below were measured by dynamic laser light scattering, also called Photon correlation spectroscopy, using the Malvern Zetasizer-S instrument (Malvern Instruments Inc., Southborough Mass.). […] The particle diffusion (translational diffusion) due to Brownian motion was measured in the instrument and related to the size of the parameter. The mean hydrodynamic diameter (DH) was calculated from the Strokes-Einstein equation. The range of particle sizes which can be measured by the Zetasizer is from 0.6 to 6000 nm.

[6] = test system: CCL-221 cells; assay: Paclitaxel growth inhibition, 48 hours; format: cell-based, human; details: CCl-221, after 48 hours of treatment
Source text: (§2) The graphs indicate a 60% and 52% growth inhibition when treated with paclitaxel in DMSO and paclitaxel in nanoemulsion respectively. […] The error bars represent the standard error of mean for experiments done in duplicates.

[7] = test system: P10.05 cells; assay: Paclitaxel growth inhibition, 48 hours; format: cell-based, human; details: P10.05, after 48 hours of treatment
Source text: as §2

[8] = Stability of Coumarin preparations over several days stored at room temperature (size, PDI); format: physicochemical; details: for Size: in nm (unit assumed)
Source text: The fluorescence intensity of a Coumarin 6 nanoemulsion can be increased by adding a polysaccharide polymer such as dextran to the SANE formulation. As described in Example 2, the fluorescent dye Coumarin 6 SANE composition can optionally comprise dextran to increase fluorescence intensity of the SANE dye composition. Example 2 describes preparation of Coumarin 6 SANE dye formulations with and without the addition of the polymer dextran. Example 2 also describes measured particle size, stability and fluorescence intensity determined in samples of (a) DMSO coumarin 6 preparation, (b) nanoemulsion of coumarin 6 preparation without dextran, and (c) nanoemulsion of coumarin 6 with dextran.
As shown by the data in Table 2 is that over a 3 day period, these SANE preparations of Coumarin 6 were stable (determined by particle size changes) at room temperature for at least 3 days compared to the DMSO coumarin 6 preparation.
as §1, with “Mass.). Each sample was diluted immediately before measurement with distilled water to avoid multiple light scattering effects.” for “Mass.).”

COc1cc(/C=C/C(=O)CC(=O)/C=C/c2ccc(O)c(OC)c2)ccc1O [curcumin in DMSO, (1E,6E)-1,7-bis(4-hydroxy-3-methoxyphenyl)-1,6-heptadiene-3,5-dione]
inhibition of melanoma cancer cell proliferation ([1]; 0.03 micromolar): efficacy against the melanoma cancer cells is lost | inhibition of melanoma cancer cell proliferation ([1]; 30 micromolar): inhibited melanoma cancer cell proliferation

COc1cc(/C=C/C(=O)CC(=O)/C=C/c2ccc(O)c(OC)c2)ccc1O [curcumin in water, (1E,6E)-1,7-bis(4-hydroxy-3-methoxyphenyl)-1,6-heptadiene-3,5-dione]
zeta wall potential [2]: −2.53

O=c1[nH]cc(F)c(=O)[nH]1 [non-encapsulation 5-FU, 5-fluorouracil]
inhibition of cell proliferation [3]: not as effective

CC(=O)O[C@H]1C(=O)[C@@]2(C)[C@H]([C@H](OC(=O)c3ccccc3)[C@]3(O)C[C@H](OC(=O)[C@H](O)[C@@H](NC(=O)c4ccccc4)c4ccccc4)C(C)=C1C3(C)C)[C@]1(OC(C)=O)CO[C@@H]1C[C@@H]2O [paclitaxel in DMSO, paclitaxel]
growth inhibition [4]: 44% | average particle (droplet) size, Z-average [5]: ≥ 1,000 nm | growth inhibition [6]: 60% | growth inhibition [7]: 60%

Coumarin 6 [DMSO COUMARIN]
PDI ([8]; 0 hrs): 0.457 | Size ([8]; 0 hrs): 1373 | PDI ([8]; 72 hrs): 0.857 | Size ([8]; 72 hrs): 1373 | PDI ([8]; 96 hrs): 0.857 | Size ([8]; 96 hrs): 2142 | PDI ([8]; 120 hrs): 0.857 | Size ([8]; 120 hrs): 6000 | PDI ([8]; 144 hrs): 0.857 | Size ([8]; 144 hrs): 6000 | PDI ([8]; 240 hrs): 0.857 | Size ([8]; 240 hrs): 6000
